{"source": "patent US11638427B2", "about": "“Methods and compositions for altering secondary metabolites in plants” (Impello Biosciences, Inc, priority 2020, dated 2023)", "key": {"[1]": {"test_system": "marijuana variety Lemon Creamsicle", "test": "Foliar spray of CJ or MDJ on high-THC marijuana in greenhouse, cannabinoid analysis", "type": "in vivo, Cannabis spp.", "conditions": "7.5 mM foliar spray every 14 days, four treatments", "experimental": "Applicant's previous experiments investigated the effects of jasmonate-type elicitors MeJA, MDJ, and CJ on hemp (high fiber) and high-CBD, (low-THC) varieties of Cannabis. […] Here, the effects of MDJ and CJ application on a high-THC variety in a controlled environment was investigated. High-THC, low-CBD marijuana variety “Lemon Creamsicle” (LC), was grown in a greenhouse setting. LC was used as a plant model due to its historically consistent metabolite profile in the greenhouse environment, making it a stable, known, and reliable variety.\nA four-block plant trial was implemented with a population of N=12 plants and treatment group sizes of n=4. The treatment and control groups were defined as follows: Control=water+0.1% TWEEN®-20 aqueous foliar spray, Treatment 1=[7.5 mM] CJ+0.1% TWEEN®-20 aqueous foliar spray, Treatment 2=[7.5 mM] MDJ+0.1% TWEEN®-20 aqueous foliar spray. A standardized concentration of [7.5 mM] for both CJ and MDJ applications was chosen due to its performance in Applicant's past research. All treatment solutions were prepared the day of the application in equal volumes from pre-measured quantities of the stock materials to ensure consistency, i.e., appropriate volumes of CJ or MDJ were combined with appropriate volumes of TWEEN®-20 for each experimental treatment, stored in a sealed centrifuge tube, and diluted in the appropriate amount of water immediately prior to application. Separate sprayers were used for each treatment and control sprays to avoid cross-contamination.\nAll plants in the trial were produced as asexual clone stock taken from the same mother plant at the same time to ensure homogeneity. All plants were rooted and grown in accordance with the production practices typical to this greenhouse operator prior to plant selection for the experiment. Due to the layout of the cultivation system, which features immovable hydroponic “pots” that house the plant throughout the entire flowering (i.e., reproductive) phase, all plants included in the experiment were selected from a set section of the greenhouse after final transplant into the hydroponic system and grouped in a complete randomized block design accordingly.\nAfter defining the plants to include in the experiment, which were organized in two (2) rows of six (6) plants side-by-side in the hydroponic system, the experimental blocks were defined as groups of three plants, and a research randomizer tool (randomizer.org) was used to generate a randomized arrangement of plants in each group. Using a blocked design in this setting helped account for the immovable nature of the plants and the slight, if any, environmental differences (like natural sunlight, shading from other plants, and corner/edge effect) that existed in the small experimental area. Blocking the experimental arrangement also allowed for improved statistical analysis and resolution considering the small sample size and close proximity of the experimental plants.\nAfter labelling each plant in the experiment with the appropriate group label (Control, T1 [CJ], or T2 [MDJ]), the plants were allowed to grow normally between treatment applications, which were performed every 14 days for a total of four (4) treatments throughout the flowering cycle, which lasted approximately eight (8) weeks. The first treatment occurred seven (7) days after the onset of the flowering cycle, which was dictated by day-length control. Care was taken with each treatment application to minimize overspray onto non-target neighboring plants, and physical barriers were temporarily installed between plants during treatment sprays to aid in this effort. These barriers were removed following treatment sprays when the foliage was no longer visibly wet from the treatment and/or control foliar sprays. […]"}, "hemp plants Cv. Zephyr": {"test_system": "hemp plants Cv. Zephyr", "test": "Weekly MDJ foliar spray at four concentrations, cannabinoids and terpenes", "type": "in vivo, Cannabis spp.", "experimental": "To investigate the effect of different concentrations of MDJ, four different concentrations of MDJ was applied to hemp plants (n=5 per treatment, Cv.: Zephyr, CBDRx) weekly via foliar spray at the following concentrations: 1 mM, 4.25 mM, 7.5 mM, 10 mM. Treatment concentrations were prepared as described above and one drop of TWEEN®-20 (VWR, CAS No.: 9005-64-5) was added to treatments to serve as a surfactant. Treatments were applied weekly during both the vegetative (2 treatments) and flowering (6 treatments) developmental stages using a SPRAYMASTER Chemical Sprayer (King of Prussia, Pa.) (8 treatments total). Plants were grown under a total of 12 Boost (Thrive Agritech, NY) 130-watt LED lights set to 18L: 6D photoperiod during the vegetative phase (2 weeks) followed by a 12L: 12D photoperiod during the flowering phase (6 weeks), using the same lighting. Untreated controls served as a comparison to see alterations in metabolite synthesis."}, "avocados": {"test_system": "avocados", "test": "Fruit MDJ dips, 2 weeks observation", "type": "in vivo", "experimental": "(§1) For fruit MDJ dips, all fruits were purchased from a local market as certified organic on 4/13/2021. Before any treatments, all fruits were submerged in boiling water to melt off any non-natural waxy coating then dried with a washcloth. Once fruits were clean and dry, they were submerged in varying concentrations of methyl dihydrojasmonate solutions. Each solution was prepared from a 1M MDJ Tween 20 stock solution diluted with RO water. 500 ml of each solution was prepared and reused for the different fruits. Each fruit was submerged for 20 seconds and then left to dry on a paper towel. After the fruits were dry the paper towels were removed and fruits left on the lab bench at room temperature grouped by treatment but not touching and monitored for visual differences for 2 weeks. The pineapple was the only fruit that was not fully submerged but instead sprayed till drip with the varying concentration of MDJ/Tween 20 solution. Then left to dry and monitored the same as the other fruits.\n(§2) Treatments and Sample Sizes:\n(§3) Control, water—4 lemons, 2 oranges, 1 pineapple, 1 mango, 4 strawberries, 2 grapes (˜10 grapes/bundle), 2 oranges, 4 avocados\n(§4) [5] mM MDJ—4 lemons, 3 oranges, 1 pineapple, 1 mango, 4 strawberries, 2 grapes, 2 oranges, 4 avocados\n(§5) [10] mM MDJ—4 lemons, 3 oranges, 0 pineapple, 1 mango, 4 strawberries, 2 grapes, 2 oranges, 4 avocados\n(§6) [20] mM MDJ—5 lemons, 3 oranges, 1 pineapple, 1 mango, 4 strawberries, 2 grapes, 2 oranges, 4 avocados\n(§7) Qualitative observations like color changes, firmness, mold appearance were monitored and at the end of the two weeks all fruits were cut in half to record and further observations. Penetrometer readings were recorded in the last week of observations."}, "blood oranges": {"test_system": "blood oranges", "test": "Fruit MDJ dips, 2 weeks observation", "type": "in vivo", "conditions": "dip 5, 10, 20 mM; observation period 2 weeks", "experimental": "as §1, §2, §3, §4, §5, §6, §7"}, "grapes": {"test_system": "grapes", "test": "Fruit MDJ dips, 2 weeks observation", "type": "in vivo", "conditions": "dip 5, 10, 20 mM", "experimental": "as §1, §2, §3, §4, §5, §6, §7"}, "lemons": {"test_system": "lemons", "test": "Fruit MDJ dips, 2 weeks observation", "type": "in vivo", "conditions": "dip 5, 10, 20 mM for 20 seconds; 2 weeks at room temperature", "experimental": "as §1, §2, §3, §4, §5, §6, §7"}, "mangoes": {"test_system": "mangoes", "test": "Fruit MDJ dips, 2 weeks observation", "type": "in vivo", "conditions": "one fruit per group", "experimental": "as §1, §2, §3, §4, §5, §6, §7"}, "oranges": {"test_system": "oranges", "test": "Fruit MDJ dips, 2 weeks observation", "type": "in vivo", "conditions": "dip 5, 10, 20 mM", "experimental": "as §1, §2, §3, §4, §5, §6, §7"}, "[2]": {"conditions": "all tested concentrations (1, 4.25, 7.5, 10 mM) weekly foliar spray vs untreated controls"}}, "data": [{"compound": "CCCCCC1C(=O)CCC1CC(=O)OC", "note": "(stereo not drawn) [MDJ, methyl dihydrojasmonate]", "values": [{"measurement": "CBGA average relative percent increase compared to the Control group", "setting": "[1]", "value": 15.91, "unit": "%"}, {"measurement": "THCA average relative percent increase compared to the Control group", "setting": "[1]", "value": 6.88, "unit": "%"}, {"measurement": "Total Cannabinoids average relative percent increase compared to the Control group", "setting": "[1]", "value": 6.06, "unit": "%"}, {"measurement": "Total THC average relative percent increase compared to the Control group", "setting": "[1]", "value": 5.92, "unit": "%"}, {"measurement": "CBDA", "setting": "hemp plants Cv. Zephyr; [2]", "value": "significantly increased"}, {"measurement": "CBGA", "setting": "hemp plants Cv. Zephyr; [2]", "value": "significantly increased"}, {"measurement": "THCA", "setting": "hemp plants Cv. Zephyr; [2]", "value": "significantly increased"}, {"measurement": "Total CBD", "setting": "hemp plants Cv. Zephyr; [2]", "value": "significantly increased"}, {"measurement": "Total CBG", "setting": "hemp plants Cv. Zephyr; [2]", "value": "significantly increased"}, {"measurement": "Total cannabinoids", "setting": "hemp plants Cv. Zephyr; [2]", "value": "significantly increased"}, {"measurement": "several terpenes", "setting": "hemp plants Cv. Zephyr; weekly foliar spray 1-10 mM", "value": "altered"}, {"measurement": "CBL", "setting": "hemp plants Cv. Zephyr; weekly foliar spray, CBL not detected at all in the control samples", "value": "detectable levels"}, {"measurement": "browning when the fruits were cut open", "setting": "avocados; dip 5 mM", "value": "least signs of browning"}, {"measurement": "external browning", "setting": "avocados; dip 10 mM and 20 mM groups (and control group)", "value": "more external browning"}, {"measurement": "mold", "setting": "blood oranges", "value": "no mold in any of the treatment groups"}, {"measurement": "mold or observable difference between groups", "setting": "grapes", "value": "did not exhibit any mold, or observable difference between groups"}, {"measurement": "visual differences externally or internally", "setting": "lemons", "value": "no distinct visual differences"}, {"measurement": "internal browning when cut open, relative to the control group", "setting": "mangoes; dip 5 mM", "value": "slightly less"}, {"measurement": "internal browning when cut open, relative to the control group", "setting": "mangoes; dip 10 mM", "value": "less still"}, {"measurement": "internal browning when cut open", "setting": "mangoes; dip 20 mM", "value": "no clear browning"}, {"measurement": "mold", "setting": "oranges", "value": "no appearance of mold"}]}]}
